In ChEMBL document CHEMBL1201862, “PubChem BioAssay data set” (2004):
Activity calls are given as the source filed them. Cut-off read from the data, not from the text of the source: actives have a measured IC50 and inactives only a lower limit.

Target: Envelope glycoprotein gp160 (Human immunodeficiency virus 1, UniProt Q6QLK5)
Assay: inhibitors of HIV fusion peptide binding, primary screen, biochemical, uHTS, fluorescence dequenching (AID 1986)

Sequence of Envelope glycoprotein gp160 (Q6QLK5 whole entry, the tested form may be a part): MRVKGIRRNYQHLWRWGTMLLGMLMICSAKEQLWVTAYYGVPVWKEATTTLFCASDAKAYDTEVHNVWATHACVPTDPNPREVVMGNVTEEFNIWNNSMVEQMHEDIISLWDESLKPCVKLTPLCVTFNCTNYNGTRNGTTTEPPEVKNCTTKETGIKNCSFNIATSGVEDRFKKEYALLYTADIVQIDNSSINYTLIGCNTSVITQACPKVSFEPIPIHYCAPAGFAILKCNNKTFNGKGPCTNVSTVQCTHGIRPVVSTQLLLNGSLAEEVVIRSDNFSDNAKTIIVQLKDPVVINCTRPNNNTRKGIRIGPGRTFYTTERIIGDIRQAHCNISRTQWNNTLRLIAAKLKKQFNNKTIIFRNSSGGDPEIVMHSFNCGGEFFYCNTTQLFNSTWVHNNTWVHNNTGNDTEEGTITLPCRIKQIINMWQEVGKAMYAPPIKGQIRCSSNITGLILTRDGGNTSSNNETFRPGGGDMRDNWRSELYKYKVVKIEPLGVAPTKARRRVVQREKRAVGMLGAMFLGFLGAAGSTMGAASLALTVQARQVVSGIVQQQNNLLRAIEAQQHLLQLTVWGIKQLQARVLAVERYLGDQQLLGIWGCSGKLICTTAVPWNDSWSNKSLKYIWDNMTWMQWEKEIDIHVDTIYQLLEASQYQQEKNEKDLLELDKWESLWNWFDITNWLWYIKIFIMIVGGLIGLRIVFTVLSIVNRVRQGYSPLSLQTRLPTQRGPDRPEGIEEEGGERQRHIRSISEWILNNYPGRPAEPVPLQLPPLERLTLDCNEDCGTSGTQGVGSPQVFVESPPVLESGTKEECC

CCOC(=O)C1=C(C)N=c2s/c(=C\c3ccc(OCC(=O)O)c(OC)c3)c(=O)n2C1c1ccc(OC)cc1 (stereo unspecified)
IC50: 23.9 µM (active)
